Article PMC9927415, “Tyrosine Kinase Inhibitors Display Potent Activity against Cryptosporidium parvum” (Microbiology Spectrum, 2022)
pEC50: −log10 of the molar value. Like-named read-outs stand apart in the source and are kept apart here.

Columns and labels:
[1] = system: Cryptosporidium parvum; assay: In vitro C. parvum growth inhibition assay (Nluc reporter strain in HCT-8 cells); assay type: cell-based; settings: 48 h; for pEC50: mean of two independent experiments, dose response 10 nM to 10 μM, read-out: Cp EC50; for inhibition at 10 µM: primary screen, 10 μM compound, three technical replicates, read-out: Mean percent inhibition of C. parvum growth
Experimental: Host intestinal epithelial adenocarcinoma (HCT-8) cells were seeded into 96-well plates and grown to 70% confluence in RPMI medium supplemented with L-glutamine, 10% fetal bovine serum (FBS), 0.1 U/mL penicillin, 0.1 μg/mL streptomycin, 0.25 μg/mL amphotericin B and 1 mM sodium pyruvate. The host cell medium was aspirated and replaced with Cryptosporidium infection media (RPMI containing 2% FBS, 0.1 U/mL penicillin, 0.1 μg/mL streptomycin and 0.25 μg/mL amphotericin B) media prior to infection. The HCT-8 cells were infected with bleached and washed Nluc expressing C. parvum oocysts (2,000 oocysts per well) to which 10 μM compounds were added and plates were incubated for 48 h at 37°C, 5% CO2 and luminescence was measured using the protocol described previously ([14], [58]). […] Negative (no drug) and positive control (10 μM nitazoxanide) wells (three replicates each) were also set-up in the same plate. After the incubation, medium was removed and 100 μL of NanoGlo lysis buffer (Promega) was added to the wells followed by incubation for 15 min at 37°C, 5% CO2. The lysate was suspended by pipetting and 100 μL of NanoGlo lysis buffer containing 1:50 of NanoGlo substrate (Promega) was added to each well. […] For the dose response assay, compounds were tested in triplicate wells in two independent experiments and percent luminescence of no drug was calculated.
EC50 values were calculated using a nonlinear regression (curve fit of log-dose versus response) in GraphPad Prism version 8.

[2] = molecular target: T1, Aurora kinase A (Homo sapiens, UniProt O14965); assay: KINOMEscan competitive binding
T1 construct: purchased DiscoverX (KINOMEscan)
T1 sequence (O14965 1-403): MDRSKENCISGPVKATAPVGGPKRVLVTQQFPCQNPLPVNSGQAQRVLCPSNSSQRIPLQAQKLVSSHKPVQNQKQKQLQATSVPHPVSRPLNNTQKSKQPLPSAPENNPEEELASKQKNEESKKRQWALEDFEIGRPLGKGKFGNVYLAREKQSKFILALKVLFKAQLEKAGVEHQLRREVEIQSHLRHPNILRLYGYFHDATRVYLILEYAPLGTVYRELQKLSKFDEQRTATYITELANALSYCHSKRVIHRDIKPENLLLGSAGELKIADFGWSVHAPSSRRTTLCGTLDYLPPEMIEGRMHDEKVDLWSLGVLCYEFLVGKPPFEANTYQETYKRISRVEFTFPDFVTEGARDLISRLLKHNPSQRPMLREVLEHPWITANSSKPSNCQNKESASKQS
From the text: (§1) The kinases were expressed as fusions to T7 bacteriophage. This is a sensitive, competitive binding assay where test compounds were used to displace immobilized ATP-site binding probe ligands from kinases of interest. The amount of kinase that remained bound to the immobilized probe ligands on the solid support was quantified. Percentage inhibition data were was plotted on kinome trees using the web-based tool KinMap (http://www.kinhub.org/kinmap) ([60]).

[3] = molecular target: T2, CLK2 (Homo sapiens, UniProt P49760); assay: KINOMEscan competitive binding
T2 construct: purchased DiscoverX (KINOMEscan)
T2 sequence (P49760 whole entry): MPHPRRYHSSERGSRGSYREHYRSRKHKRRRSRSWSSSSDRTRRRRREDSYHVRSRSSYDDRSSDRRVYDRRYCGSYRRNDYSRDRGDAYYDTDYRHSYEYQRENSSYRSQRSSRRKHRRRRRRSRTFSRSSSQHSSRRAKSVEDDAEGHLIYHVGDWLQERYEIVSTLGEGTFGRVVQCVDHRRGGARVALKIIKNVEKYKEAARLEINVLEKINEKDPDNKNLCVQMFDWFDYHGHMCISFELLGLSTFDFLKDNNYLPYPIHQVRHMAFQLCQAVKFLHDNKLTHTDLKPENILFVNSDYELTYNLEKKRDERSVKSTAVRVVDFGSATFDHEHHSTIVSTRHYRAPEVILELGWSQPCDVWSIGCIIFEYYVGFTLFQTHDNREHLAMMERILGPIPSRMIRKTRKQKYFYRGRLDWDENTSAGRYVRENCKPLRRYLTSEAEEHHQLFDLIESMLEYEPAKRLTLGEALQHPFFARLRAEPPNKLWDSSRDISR
From the text: as §1

[4] = molecular target: T3, LKB1 (Homo sapiens, UniProt Q15831); assay: KINOMEscan competitive binding
T3 construct: purchased DiscoverX (KINOMEscan)
T3 sequence (Q15831 1-433): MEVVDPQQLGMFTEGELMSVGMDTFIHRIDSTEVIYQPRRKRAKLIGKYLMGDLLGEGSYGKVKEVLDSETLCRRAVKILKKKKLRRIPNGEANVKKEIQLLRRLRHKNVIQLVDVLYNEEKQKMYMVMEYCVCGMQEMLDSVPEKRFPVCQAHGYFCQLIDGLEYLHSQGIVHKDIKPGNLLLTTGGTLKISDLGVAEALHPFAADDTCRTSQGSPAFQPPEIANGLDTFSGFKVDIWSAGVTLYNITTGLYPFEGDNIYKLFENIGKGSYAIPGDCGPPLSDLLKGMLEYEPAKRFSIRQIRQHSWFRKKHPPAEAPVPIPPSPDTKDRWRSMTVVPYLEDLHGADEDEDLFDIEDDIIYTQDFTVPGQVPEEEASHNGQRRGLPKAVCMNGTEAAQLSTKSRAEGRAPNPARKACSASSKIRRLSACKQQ
From the text: as §1

[5] = molecular target: T4, TYK2(Kin.Dom.2) (Homo sapiens, UniProt P29597); assay: KINOMEscan competitive binding; settings: n=1, read-out: Percent inhibition, TYK2(Kin.Dom.2)
T4 construct: TYK2(Kin.Dom.2); purchased DiscoverX (KINOMEscan)
T4 sequence (P29597 889-1187 limits assumed): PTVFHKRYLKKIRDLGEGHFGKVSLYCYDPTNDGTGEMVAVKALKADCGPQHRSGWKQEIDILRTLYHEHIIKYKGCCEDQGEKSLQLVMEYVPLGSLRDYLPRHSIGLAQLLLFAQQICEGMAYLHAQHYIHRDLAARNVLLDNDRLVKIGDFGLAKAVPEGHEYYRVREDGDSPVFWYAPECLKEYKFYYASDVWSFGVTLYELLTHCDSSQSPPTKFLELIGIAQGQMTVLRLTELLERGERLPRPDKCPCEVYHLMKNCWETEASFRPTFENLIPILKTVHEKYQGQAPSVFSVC

[6] = 10 μM, n = 1, read-out: percent inhibition Aurora kinase A
[7] = 10 µM, n=1, kinase AURKA, read-out: Percent inhibition AURKA
[8] = 10 µM, n=1, kinase CLK2, read-out: Percent inhibition CLK2
[9] = 10 µM, n=1, kinase LKB1, read-out: Percent inhibition LKB1

SMILES	pEC50 [1]	inhibition at 10 µM [1]	inhibition at 10 µM [2, 6]	inhibition at 10 µM [2, 7]	inhibition at 10 µM [3, 8]	inhibition at 10 µM [4, 9]	inhibition at 10 µM [5]	inhibition at 10 µM ([4]; 10 μM, n = 1, read-out: percent inhibition LKB1)	inhibition at 10 µM ([3]; 10 μM, n = 1, read-out: percent inhibition CLK2)
CN1CCN(c2ccc(Nc3nccc(-c4cnn5ncccc45)n3)cc2C#N)CC1 [Compound 1]	7.40	95.6%	> 90%	96.7%	100%	100%	88.2%	–	–
COc1ccc(Nc2nccc(-c3cnn4ncccc34)n2)cc1 [Compound 2]	6.89	92.9%	> 90%	91.1%	99.9%	96.1%	0%	–	–
Cc1ccc(O)cc1Nc1ccnc(Nc2cccc(C(N)=O)c2)n1 [Compound 3]	6.21	94.4%	–	91.3%	91.5%	74.3%	94%	–	–
Cc1ccc(O)cc1N(C)c1ccnc(Nc2cccc(S(N)(=O)=O)c2)n1 [Compound 4]	7.10	95.5%	–	79.6%	84.5%	77.3%	95.6%	–	–
Fc1cccc(COc2ccc(Nc3ncnc4c3CN(CCN3CCOCC3)CC4)cc2Cl)c1 [Compound 6]	6.62	93.7%	–	0%	0%	0%	0%	–	–
COc1cc(Nc2nccc(-c3sc(N)nc3-c3cccc(NC(=O)c4c(F)cccc4F)c3)n2)cc(OC)c1OC [Compound 7]	6.74	90.9%	–	99.5%	0%	0%	97.2%	–	–
C[C@@H](Oc1cc(-c2cnc3ccccn23)sc1C(N)=O)c1ccccc1Cl [Compound 8]	6.41	95%	–	0%	0%	98.3%	0%	–	–
c1ccc(COc2cccc(-c3ccnc4[nH]ccc34)c2)cc1 [Compound 9]	6.51	95.2%	–	0%	0%	99.5%	0%	≥ 99%	–
Clc1ccc(Nc2ncc(-c3ccccc3)s2)cc1 [Compound 10]	6.38	95.1%	–	0%	0%	67.6%	0%	–	–
Nc1ncc2c(-c3ccncc3)c[nH]c2n1 [Compound 11]	7.22	90.8%	–	0%	99.9%	80%	0%	–	≥ 99%
